pIC50: −log10 of the molar value.
Assays:
[1] = system: Trypanosoma brucei rhodesiense, STIB 900 strain, trypomastigotes stage; assay: In vitro activity against T. b. rhodesiense; assay type: cell-based; conditions: for pIC50: Trypanosoma brucei, STIB 900, trypomastigotes, average of two independent assays, read-out: IC50 T. b. rhod.
Protocol: (§1) The in vitro activities against the protozoan parasites T.b. rhodesiense, T. cruzi, L. donovani, and P. falciparum and cytotoxicity assessment against L6 cells were determined as reported elsewhere.

[2] = system: Trypanosoma cruzi, Tulahuen C4 strain, amastigotes stage; assay: In vitro activity against T. cruzi; assay type: cell-based; conditions: Trypanosoma cruzi, TULAHUEN, Tulahuen C4, amastigotes; average of two independent assays; read-out: IC50 T. cruzi
Protocol: as §1

[3] = system: Leishmania donovani, MHOM-ET-67/L82 strain, amastigote/axenic stage; assay: In vitro activity against L. donovani; assay type: cell-based; conditions: Leishmania donovani, MHOM-ET-67/L82, axenic amastigotes; average of two independent assays; read-out: IC50 L. don.
Protocol: as §1

[4] = system: Plasmodium falciparum, K1 strain, IEF stage; assay: In vitro activity against P. falciparum K1; assay type: cell-based; conditions: for pIC50: Plasmodium falciparum, K1 dual drug resistant strain, IEF stage, average of two independent assays, read-out: IC50 P. falc. K1; for SI Pf: Selectivity index for P. falciparum = IC50 L6/IC50 Pf
Protocol: as §1

[5] = system: L6 rat skeletal myoblast cell line; assay: Cytotoxicity against L6 cells; assay type: cell-based; conditions: Rattus norvegicus, Myoblast, cytotoxicity, L6 rat skeletal myoblasts; average of two independent assays; read-out: IC50 L6
Protocol: as §1

[6] = system: GFP-transfected P. berghei strain ANKA; assay: In vivo anti-malarial efficacy in P. berghei infected mice; set-up: species or system NMRI mice
Protocol: Furan carboxylic acid analogue 16 was selected for preliminary proof-of-principle in vivo evaluation in Plasmodium berghei infected mice. […] Switching to an oral dosing experiment (100 mg/kg once per day for 4 days) yielded a 47% reduction of parasitaemia. Although not considered significant, these levels of activity for both ip and po dosing clearly identifies heterocyclic dioxothiazinoquinone carboxylic acids to be a novel anti-malarial drug scaffold warranting further structure-activity relationship studies.
In vivo anti-malarial activity was assessed as previously described. Groups of three female NMRI mice (20–22 g) were intravenously infected with 2 × 10^7 parasitized erythrocytes on day 0 with GFP-transfected P. berghei strain ANKA [24]. Compounds were formulated in 100% DMSO, diluted 10-fold in distilled water and administered intraperitoneally in a volume of 10 ml kg^−1 on four consecutive days (4, 24, 48 and 72 h post infection). Control experiments used DMSO-H2O vehicle alone. Parasitemia was determined on day 4 post infection (24 h after last treatment) by FACS analysis. Activity was calculated as the difference between the mean per cent parasitaemia for the control (n = 5 mice) and treated groups expressed as a per cent relative to the control group. The survival of the animals was usually monitored up to 30 days: a compound was considered curative if the animal survived to day 30 after infection with no detectable parasites. In vivo efficacy studies in mice were conducted according to the rules and regulations for the protection of animal rights (“Tierschutzverordnung”) of the Swiss “Bundesamt für Veterinärwesen”. They were approved by the veterinary office of Canton Basel-Stadt, Switzerland.

[7] = in vivo, 150 mg/kg

Structure (SMILES) | pIC50 [1] | pIC50 [2] | pIC50 [3] | pIC50 [4] | SI Pf [4] | pIC50 [5] | melting point | SI (T. brucei rhodesiense) ([1]; selectivity towards T. brucei rhodesiense versus L6) | reduction in parasitaemia ([6]; ip 50 (mg/kg)/day for four days) [%] | mean survival time ([6]; ip 50 (mg/kg)/day for four days, untreated control 4–6 days) [days] | reduction of parasitaemia ([6]; oral 100 mg/kg once per day for 4 days) [%] | ip acute toxicity [7]
CCCCCCCCNC(=O)c1ccc2c(n1)C(=O)C1=C(C2=O)S(=O)(=O)C=CN1 [Compound 8c, N-n-Octyl-5,10-dioxo-5,10-dihydro-4H-[1,4]thiazino[2,3-g]quinoline-7-carboxamide 1,1-Dioxide] | 5.62 | 4.38 | 4.28 | 6.01 | 6 | 5.19 | 280 °C (dec.) | – | – | – | – | –
O=C(NCc1ccccc1)c1ccc2c(n1)C(=O)C1=C(C2=O)S(=O)(=O)C=CN1 [Compound 8d, N-Benzyl-5,10-dioxo-5,10-dihydro-4H-[1,4]thiazino[2,3-g]quinoline-7-carboxamide 1,1-Dioxide] | 5.38 | 3.80 | < 3.60 | 5.33 | 7 | 4.47 | 280 °C (dec.) | – | – | – | – | –
O=C(NCCc1ccccc1)c1ccc2c(n1)C(=O)C1=C(C2=O)S(=O)(=O)C=CN1 [Compound 8e, N-Phenethyl-5,10-dioxo-5,10-dihydro-4H-[1,4]thiazino[2,3-g]quinoline-7-carboxamide 1,1-Dioxide] | 6.17 | 3.85 | 3.80 | 5.19 | 8 | 4.28 | 290 °C (dec.) | 78 | – | – | – | –
O=C(NCCCc1ccccc1)c1ccc2c(n1)C(=O)C1=C(C2=O)S(=O)(=O)C=CN1 [Compound 8f, N-(3-Phenylpropyl)-5,10-dioxo-5,10-dihydro-4H-[1,4]thiazino[2,3-g]quinoline-7-carboxamide 1,1-Dioxide] | 5.23 | 4.23 | < 3.62 | 5.92 | 5 | 5.19 | 230 °C (dec.) | – | – | – | – | –
CC(C)=CCC/C(C)=C/CNC(=O)c1ccc2c(n1)C(=O)C1=C(C2=O)S(=O)(=O)C=CN1 [Compound 8g, (E)-N-(3,7-Dimethylocta-2,6-dien-1-yl)-5,10-dioxo-5,10-dihydro-4H-[1,4]thiazino[2,3-g] quinoline-7-carboxamide 1,1-Dioxide] | 5.60 | 4.38 | 3.82 | 5.96 | 4 | 5.31 | 280 °C (dec.) | – | – | – | – | –
C#CCNC(=O)c1ccc2c(n1)C(=O)C1=C(C2=O)S(=O)(=O)C=CN1 [Compound 8h, N-(Prop-2-yn-1-yl)-5,10-dioxo-5,10-dihydro-4H-[1,4]thiazino[2,3-g]quinoline-7-carboxamide 1,1-Dioxide] | 5.00 | 3.82 | 3.64 | 5.77 | 29 | 4.30 | 230 °C (dec.) | – | – | – | – | –
COCCNC(=O)c1ccc2c(n1)C(=O)C1=C(C2=O)S(=O)(=O)C=CN1 [Compound 8i, N-(2-Methoxyethyl)-5,10-dioxo-5,10-dihydro-4H-[1,4]thiazino[2,3-g] quinoline-7-carboxamide 1,1-Dioxide] | 4.89 | 3.85 | 3.82 | 5.82 | 67 | 4.00 | 200 °C (dec.) | – | – | – | – | –
O=C(O)c1cc2c(s1)C(=O)C1=C(C2=O)S(=O)(=O)C=CN1 [Compound 12, 5,9-Dioxo-5,9-dihydro-4H-thieno[2′,3′:4,5]benzo[1,2-b][1,4]thiazine-7-carboxylic Acid 1,1-Dioxide] | 5.66 | 3.68 | < 3.54 | 7.46 | 4000 | 3.85 | 290 °C (dec.) | – | – | – | – | –
CCOC(=O)c1cc2c(o1)C(=O)C1=C(C2=O)S(=O)(=O)CCN1 [Compound 15, Ethyl 5,9-Dioxo-3,4,5,9-tetrahydro-2H-benzofuro[5,6-b][1,4]thiazine-7-carboxylate 1,1-Dioxide] | 5.96 | 5.33 | 4.40 | 6.96 | 46 | 5.29 | 277 °C | – | – | – | – | –
O=C(O)c1cc2c(o1)C(=O)C1=C(C2=O)S(=O)(=O)CCN1 [Compound 16, 5,9-Dioxo-3,4,5,9-tetrahydro-2H-benzofuro[5,6-b][1,4]thiazine-7-carboxylic Acid 1,1-Dioxide] | 5.12 | < 3.52 | < 3.52 | 6.92 | 2400 | 3.54 | – | – | 85.7 | 9.6 | 47 | no toxicity
O=C(O)c1cc2c(o1)C(=O)C1=C(C2=O)S(=O)(=O)C=CN1 [Compound 17, 5,9-Dioxo-5,9-dihydro-4H-benzofuro[5,6-b][1,4]thiazine-7-carboxylic Acid 1,1-Dioxide] | 5.57 | < 3.52 | 3.92 | 6.47 | 560 | 3.72 | 280 °C (dec.) | – | – | – | – | –

From paper PMC3806465, “Discovery and Evaluation of Thiazinoquinones as Anti-Protozoal Agents” (Marine Drugs, 2013)
